Source: EP3426036B1, “CROP ENHANCEMENT” (priority 2016, dated 2017)

Columns and labels:
[1] = test system: detached wheat (Triticum aestivum var. Arina) leaves; assay: Detached leaf transpiration and photosynthesis analysis; format: in vivo, Triticum aestivum L.
Procedure: Winter wheat (Triticum aestivum L.) of the variety Arina was used for the detached leaf transpiration assay. Plants were grown under optimum conditions in growth chambers until BBCH 12. The seedlings were dark-adapted for one hour; the second leaf was cut under water and directly placed into a 1.5 mL test-tube filled with 1 mL of compound I solution. The solution was prepared by dissolving compound I in dimethyl sulfoxide (DMSO) and diluting in water to the final concentrations of 3, 10, 50 and 100 mg L^-1. After weighing the initial weight of the leaf-tube-system, the leaves were placed in growth chambers at 25°C, 60% relative humidity and a light intensity of 150 µmol m^-2 s^-1 at 14 hours photoperiod. Transpiration was quantified by measuring the weight of the leaf-tube-system after 6 and 24 hours. Tubes without leaves solely filled with water were used to correct for evaporation. At 6 hours, the operating quantum efficiency of photosystem II (φPSII), which is a proxy of the photosynthetic activity, was monitored under growth conditions from the middle of the leaf using a PAM-2500 fluorometer (Walz, Effeltrich, Germany). The experimental design was a randomized complete block design with five replications for each treatment; one experimental unit was one leaf per test-tube. Statistical analysis (ANOVA) was done with Agstat 1.6 / ACSAP 4.29.

Soybean plants = assay: Crop enhancement effect on soybean under drought conditions, then optimal conditions (Example 2b); format: in vivo; conditions: for Dry weight of pods: 21 days drought then 25 days optimal conditions
Procedure: Soybean plants were grown in pots. The plants were treated at R1 (33 days after sewing) or three days before R3 (40 days after sewing) with the compound of formula I at 0.75 l/ha. An untreated control plant was also included. After treatment, the plants were subjected to drought conditions for 21 days before being allowed to grow under optimal conditions for a further 25 days. Eight replicates of the control and each treatment were harvested for analysis of yield and chlorophyll content. […]

[2] = 0.75 l/ha @ R1, 3 days after application
[3] = 0.75 l/ha @ R1, 7 days after application
[4] = 0.75 l/ha @ R1, 10 days after application
[5] = 0.75 l/ha @ R1, 14 days after application
[6] = 0.75 l/ha @ R1, 21 days after application
[7] = 0.75 l/ha @ R1, 24 days after application
[8] = 0.75 l/ha @ R1, 28 days after application
[9] = 0.75 l/ha @ R1, 31 days after application
[10] = 0.75 l/ha @ R1, 36 days after application
[11] = 0.75 l/ha @ R1, 41 days after application
[12] = 0.75 l/ha @ R1, 43 days after application
[13] = 0.75 l/ha @ R1, -1 days after application
[14] = 0.75 l/ha @ R3 - 3 days, 0 days after application
[15] = 0.75 l/ha @ R3 - 3 days, 3 days after application
[16] = 0.75 l/ha @ R3 - 3 days, 7 days after application
[17] = 0.75 l/ha @ R3 - 3 days, 14 days after application
[18] = 0.75 l/ha @ R3 - 3 days, 17 days after application
[19] = 0.75 l/ha @ R3 - 3 days, 21 days after application
[20] = 0.75 l/ha @ R3 - 3 days, 24 days after application
[21] = 0.75 l/ha @ R3 - 3 days, 29 days after application
[22] = 0.75 l/ha @ R3 - 3 days, 34 days after application
[23] = 0.75 l/ha @ R3 - 3 days, 36 days after application
[24] = 0.75 l/ha @ R3 - 3 days, -3 days after application
[25] = 0.75 l/ha @ R3 - 3 days, -7 days after application

Cn1cc(C(=O)Nc2cccc3c2C2CCC3C2=C(Cl)Cl)c(C(F)F)n1 (stereo not drawn) [Compound I, benzovindiflupyr]
leaf transpiration ([1]; 3, 10, 50 and 100 mg L^-1, 0 to 24 hours): significantly decreased leaf transpiration in a dose-dependent manner | leaf transpiration ([1]; 3 and 10 mg L^-1, first 6 hours): decreased only little | leaf transpiration ([1]; 50 and 100 mg L^-1, within 6 hours of treatment): clearly visible | operating quantum efficiency of photosystem II (φPSII) ([1]; at 6 hours, 3 to 100 mg L^-1): did not show an impact | Average plant colour (increase/decrease (%) compared to negative control treatment) (Soybean plants; [2]): 1.3% | Digital biomass (increase/decrease (%) compared to negative control treatment) (Soybean plants; [2]): 2.6% | Average plant colour (increase/decrease (%) compared to negative control treatment) (Soybean plants; [3]): 0.4% | Digital biomass (increase/decrease (%) compared to negative control treatment) (Soybean plants; [3]): 0.4% | Average plant colour (increase/decrease (%) compared to negative control treatment) (Soybean plants; [4]): -0.4% | Digital biomass (increase/decrease (%) compared to negative control treatment) (Soybean plants; [4]): 1.9% | Average plant colour (increase/decrease (%) compared to negative control treatment) (Soybean plants; [5]): -0.6% | Digital biomass (increase/decrease (%) compared to negative control treatment) (Soybean plants; [5]): 2.4% | Average plant colour (increase/decrease (%) compared to negative control treatment) (Soybean plants; [6]): -0.3% | Digital biomass (increase/decrease (%) compared to negative control treatment) (Soybean plants; [6]): -1.5% | Dry weight of pods (Soybean plants; 0.75 l/ha @ R1): 106.3 % of control | Average plant colour (increase/decrease (%) compared to negative control treatment) (Soybean plants; [7]): -0.3% | Digital biomass (increase/decrease (%) compared to negative control treatment) (Soybean plants; [7]): -1.1% | Average plant colour (increase/decrease (%) compared to negative control treatment) (Soybean plants; [8]): -1.6% | Digital biomass (increase/decrease (%) compared to negative control treatment) (Soybean plants; [8]): 1.2% | Average plant colour (increase/decrease (%) compared to negative control treatment) (Soybean plants; [9]): -3.0% | Digital biomass (increase/decrease (%) compared to negative control treatment) (Soybean plants; [9]): -3.7% | Average plant colour (increase/decrease (%) compared to negative control treatment) (Soybean plants; [10]): -0.5% | Digital biomass (increase/decrease (%) compared to negative control treatment) (Soybean plants; [10]): -6.3% | Average plant colour (increase/decrease (%) compared to negative control treatment) (Soybean plants; [11]): -1.4% | Digital biomass (increase/decrease (%) compared to negative control treatment) (Soybean plants; [11]): -9.2% | Average plant colour (increase/decrease (%) compared to negative control treatment) (Soybean plants; [12]): -2.0% | Digital biomass (increase/decrease (%) compared to negative control treatment) (Soybean plants; [12]): -6.9% | Average plant colour (increase/decrease (%) compared to negative control treatment) (Soybean plants; [13]): 0.3% | Digital biomass (increase/decrease (%) compared to negative control treatment) (Soybean plants; [13]): 1.5% | Average plant colour (increase/decrease (%) compared to negative control treatment) (Soybean plants; [14]): 0.4% | Digital biomass (increase/decrease (%) compared to negative control treatment) (Soybean plants; [14]): 3.6% | Average plant colour (increase/decrease (%) compared to negative control treatment) (Soybean plants; [15]): 1.3% | Digital biomass (increase/decrease (%) compared to negative control treatment) (Soybean plants; [15]): 4.3% | Average plant colour (increase/decrease (%) compared to negative control treatment) (Soybean plants; [16]): 0.4% | Digital biomass (increase/decrease (%) compared to negative control treatment) (Soybean plants; [16]): 2.7% | Average plant colour (increase/decrease (%) compared to negative control treatment) (Soybean plants; [17]): -0.2% | Digital biomass (increase/decrease (%) compared to negative control treatment) (Soybean plants; [17]): 1.5% | Average plant colour (increase/decrease (%) compared to negative control treatment) (Soybean plants; [18]): 1.4% | Digital biomass (increase/decrease (%) compared to negative control treatment) (Soybean plants; [18]): 4.4% | Average plant colour (increase/decrease (%) compared to negative control treatment) (Soybean plants; [19]): 0.2% | Digital biomass (increase/decrease (%) compared to negative control treatment) (Soybean plants; [19]): 4.4% | Dry weight of pods (Soybean plants; 0.75 l/ha @ R3 - 3 days): 105.8 % of control | Average plant colour (increase/decrease (%) compared to negative control treatment) (Soybean plants; [20]): 1.3% | Digital biomass (increase/decrease (%) compared to negative control treatment) (Soybean plants; [20]): -2.4% | Average plant colour (increase/decrease (%) compared to negative control treatment) (Soybean plants; [21]): -0.5% | Digital biomass (increase/decrease (%) compared to negative control treatment) (Soybean plants; [21]): -0.9% | Average plant colour (increase/decrease (%) compared to negative control treatment) (Soybean plants; [22]): -2.3% | Digital biomass (increase/decrease (%) compared to negative control treatment) (Soybean plants; [22]): -3.3% | Average plant colour (increase/decrease (%) compared to negative control treatment) (Soybean plants; [23]): -3.9% | Digital biomass (increase/decrease (%) compared to negative control treatment) (Soybean plants; [23]): 1.6% | Average plant colour (increase/decrease (%) compared to negative control treatment) (Soybean plants; [24]): 0.4% | Digital biomass (increase/decrease (%) compared to negative control treatment) (Soybean plants; [24]): 2.2% | Average plant colour (increase/decrease (%) compared to negative control treatment) (Soybean plants; [25]): 0.1% | Digital biomass (increase/decrease (%) compared to negative control treatment) (Soybean plants; [25]): -1.2%
